Data taken from ChEMBL document CHEMBL3997804, “Evaluation of a series of 2-napthamide derivatives as inhibitors of the drug efflux pump AcrB for the reversal of antimicrobial resistance” (Bioorg Med Chem Lett, 2017).
Calls of active or inactive are those of the source. The rule behind the calls is not given here. Peptide text beside a SMILES is read from it. * marks the point of attachment. βNA = c1ccc2cc(N*)ccc2c1

Columns and labels:
Escherichia coli BW25113 [1] = assay: Inhibition of AcrB in wild-type drug resistant Escherichia coli BW25113 assessed as potentiation of chloramphenicol-induced antibacterial activity after 18 hrs by checkerboard method
Escherichia coli [2] = assay: Growth inhibition of wild-type drug-resistant Escherichia coli BW25113 after 18 hrs by resazurin dye based broth microdilution method
Escherichia coli BW25113 [3] = assay: Inhibition of AcrB in wild-type drug resistant Escherichia coli BW25113 assessed as potentiation of erythromycin-induced antibacterial activity after 18 hrs by checkerboard method
Escherichia coli BW25113 [4] = assay: Inhibition of AcrB in wild-type drug resistant Escherichia coli BW25113 assessed as potentiation of tetraphenyl phosphonium chloride-induced antibacterial activity after 18 hrs by checkerboard method
Escherichia coli [5] = assay: Effect on rifampicin-induced antibacterial activity against wild-type drug resistant Escherichia coli BW25113 after 18 hrs by checkerboard method; type: functional
Escherichia coli BW25113 [6] = assay: Inhibition of AcrB in wild-type drug resistant Escherichia coli BW25113 assessed as potentiation of erythromycin-induced antibacterial activity by measuring erythromycin MIC at 200 ug/ml after 18 hrs by checkerboard method (reference value: 128 ug/ml)
Escherichia coli BW25113 [7] = assay: Inhibition of AcrB in wild-type drug resistant Escherichia coli BW25113 assessed as potentiation of tetraphenyl phosphonium chloride-induced antibacterial activity by measuring tetraphenyl phosphonium chloride MIC at 200 ug/ml after 18 hrs by checkerboard method (reference value: 1024 ug/ml)
Escherichia coli BW25113 [8] = assay: Inhibition of AcrB in wild-type drug resistant Escherichia coli BW25113 assessed as potentiation of chloramphenicol-induced antibacterial activity by measuring chloramphenicol MIC at 200 ug/ml after 18 hrs by checkerboard method (reference value: 8 ug/ml)
Escherichia coli [9] = assay: Effect on rifampicin-induced antibacterial activity against wild-type drug resistant Escherichia coli BW25113 assessed as rifampicin MIC at 200 ug/ml after 18 hrs by checkerboard method (reference value: 16 ug/ml); type: functional; settings: BW25113, 18 h
Escherichia coli BW25113 [10] = assay: Inhibition of […] in drug resistant Escherichia coli BW25113 assessed as increase in outer membrane permeability by measuring increase nitrocefin hydrolysis at 512 ug/ml measured over 30 mins in presence of CCCP by spectrophotometric method
Escherichia coli BW25113 [11] = assay: Inhibition of AcrB in drug resistant Escherichia coli BW25113 assessed as reduction in nile red efflux at 500 uM pretreated for 15 mins followed by nile red addition measured after 3 hrs for 200 secs in presence of glucose by fluorimetric method
Escherichia coli BW25113 [12] = assay: Inhibition of AcrB in drug resistant Escherichia coli BW25113 assessed as reduction in nile red efflux at 200 uM pretreated for 15 mins followed by nile red addition measured after 3 hrs for 200 secs in presence of glucose by fluorimetric method

SMILES | inhibition (Escherichia coli BW25113 [1]) | growth inhibition (GI) (Escherichia coli [2]) | inhibition (Escherichia coli BW25113 [3]) | inhibition (Escherichia coli BW25113 [4]) | Activity (Escherichia coli [5]) | MIC (Escherichia coli BW25113 [6]) | MIC (Escherichia coli BW25113 [7]) | MIC (Escherichia coli BW25113 [8]) | MIC (Escherichia coli [9]) | inhibition (Escherichia coli BW25113 [10]) | inhibition (Escherichia coli BW25113 [11]) | inhibition (Escherichia coli BW25113 [12])
CCCCC(CC)COc1cc(C(N)=O)cc2ccccc12 (stereo not drawn) | inactive | Non-Toxic | inactive | inactive | inactive | – | – | – | – | – | – | –
NC(=O)c1cc(OCc2cccc(F)c2)c2ccccc2c1 | inactive | Non-Toxic | inactive | inactive | inactive | – | – | – | – | – | – | –
CCC(C)Oc1cc(C(N)=O)cc2ccccc12 (stereo not drawn) | inactive | Non-Toxic | inactive | inactive | inactive | – | – | – | – | – | – | –
NC(=O)c1cc(OCc2ccccc2Cl)c2ccccc2c1 | inactive | Non-Toxic | inactive | inactive | inactive | – | – | – | – | – | – | –
NC(=O)c1cc(OCc2ccc(F)cc2)c2ccccc2c1 | inactive | Non-Toxic | inactive | inactive | inactive | – | – | – | – | – | – | –
N=C(N)NCCC[C@H](NC(=O)[C@@H](N)Cc1ccccc1)C(=O)Nc1ccc2ccccc2c1 [PABETAN] (H-Phe-Arg-βNA) | – | – | – | – | – | 16 µg/mL | 128 µg/mL | 2 µg/mL | 1 µg/mL | – | – | –
CCOC(=O)C(C)Oc1cc(C(N)=O)cc2ccccc12 (stereo not drawn) | inactive | Non-Toxic | inactive | inactive | inactive | – | – | – | – | – | – | –
NC(=O)c1cc(OCc2ccccc2)c2ccccc2c1 | Active | Non-Toxic | – | – | – | – | – | – | – | Active | Active | –
NC(=O)c1cc(OCc2ccccc2F)c2ccccc2c1 | inactive | Non-Toxic | inactive | inactive | inactive | – | – | – | – | – | – | Active
CCOC(=O)COc1cc(C(N)=O)cc2ccccc12 | inactive | Non-Toxic | inactive | inactive | inactive | – | – | – | – | – | – | –
NC(=O)c1cc(OCC2CCCC2)c2ccccc2c1 | inactive | Non-Toxic | inactive | inactive | inactive | – | – | – | – | – | – | –
Cc1ccccc1COc1cc(C(N)=O)cc2ccccc12 | inactive | Non-Toxic | inactive | inactive | inactive | – | – | – | – | – | – | –
CCOC(=O)CCCOc1cc(C(N)=O)cc2ccccc12 | inactive | Non-Toxic | inactive | inactive | inactive | – | – | – | – | – | – | –
CC(C)COc1cc(C(N)=O)cc2ccccc12 | – | Non-Toxic | Active | – | – | – | – | – | – | Active | Active | –
